Data from PMC9048847 (RSC Advances, 2020).

Target: human thrombin (Homo sapiens, UniProt P00734)
Experiment: Fluorescence-based thrombin inhibition assay
Format: biochemical

Compound | Anti-thrombin activity (in words) | IC50 [µM]
CC(C)=CCc1cc(-c2oc3cc(O)cc(O)c3c(=O)c2O)ccc1O [compound 15, isolicoflavonol] |  | > 100
COc1c(CC=C(C)C)c(O)cc2oc(=O)c(-c3ccc(O)cc3O)cc12 [compound 16, glycycoumarin] |  | > 100
COc1c2c(cc3oc(=O)c4c5ccc(O)cc5oc4c13)OC(C)(C)CC2 [compound 17, isoglycyrol] |  | > 100
CC1(C)[C@@H](O)CC[C@]2(C)[C@H]3C(=O)C=C4[C@@H]5C[C@@](C)(C(=O)O)CC[C@]5(C)CC[C@@]4(C)[C@]3(C)CC[C@@H]12 [compound 18, glycyrrhetinic acid] |  | > 100
CC1(C)[C@@H](O[C@H]2O[C@H](C(=O)O)[C@@H](O)[C@H](O)[C@H]2O[C@@H]2O[C@H](C(=O)O)[C@@H](O)[C@H](O)[C@H]2O)CC[C@]2(C)[C@H]3C(=O)C=C4[C@@H]5C[C@@](C)(C(=O)O)CC[C@]5(C)CC[C@@]4(C)[C@]3(C)CC[C@@H]12 [compound 19, glycyrrhizic acid] |  | > 100
CC1(C)C=Cc2c(ccc3c2OC[C@@H](c2ccc(O)cc2O)C3)O1 [compound 20, glabridin] |  | > 100
isoliquiritin apioside [compound 8] | moderate | 

Now from value to compound:

Anti-thrombin activity (in words) | IC50 [µM] | Compound
moderate | 38.8 ± 4.04 | O=C(/C=C/c1ccc(O[C@@H]2O[C@H](CO)[C@@H](O)[C@H](O)[C@H]2O)cc1)c1ccc(O)cc1O [compound 1, isoliquiritin]
moderate | 17.9 ± 2.75 | O=C(/C=C/c1ccc(O)cc1)c1ccc(O)cc1O [compound 2, isoliquiritigenin]
moderate | 28.5 ± 2.65 | COc1cc(O)ccc1/C=C/C(=O)c1ccc(O)cc1 [compound 6, echinatin]
 | > 100 | CC(C)=CCc1cc([C@@H]2CC(=O)c3ccc(O)c(CC=C(C)C)c3O2)ccc1O [compound 11, glabrol]
 | > 100 | O=C1C[C@@H](c2ccc(O[C@@H]3O[C@H](CO)[C@@H](O)[C@H](O)[C@H]3O)cc2)Oc2cc(O)ccc21 [compound 12, liquiritin]
 | > 100 | CC(C)=CCc1c(O)cc2oc(-c3ccc(O)cc3)c(O)c(=O)c2c1O [compound 14, licoflavonol]
 | 8.05 ± 1.5 | COc1cc(O)c2c(=O)cc(-c3ccc(OC)c(-c4c(O)cc(O)c5c(=O)cc(-c6ccc(O)cc6)oc45)c3)oc2c1 [compound 22, Ginkgetin, reference compound]
 | 36.1 ± 4.68 | O=c1cc(-c2ccccc2)oc2cc(O)c(O)c(O)c12 [compound 23, Baicalein, reference compound]
